Measured values published in US20070191393A1, “Macrocyclic anilinopyrimidines with substituted sulphoximine as selective inhibitors of cell cycle kinases” (priority 2006, published 2007).

Legend:
Type in all cases: biochemical
Aurora-C = target: T1, Aurora-C (Homo sapiens, UniProt Q9UQB9); test: Aurora-C kinase assay; details: 3 μM ATP, 22° C., 90 min
T1 construct: made in house; host or cells: HEK293 (transiently transfected)
T1 sequence (Q9UQB9 1-309): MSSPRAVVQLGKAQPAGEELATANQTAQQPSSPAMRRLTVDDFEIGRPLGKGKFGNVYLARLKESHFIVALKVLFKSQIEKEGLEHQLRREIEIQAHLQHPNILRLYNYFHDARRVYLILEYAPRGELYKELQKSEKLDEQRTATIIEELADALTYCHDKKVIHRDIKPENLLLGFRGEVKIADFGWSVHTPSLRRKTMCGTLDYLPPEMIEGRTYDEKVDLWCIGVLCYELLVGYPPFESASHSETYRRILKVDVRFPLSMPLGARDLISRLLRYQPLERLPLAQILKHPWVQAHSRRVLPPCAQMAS
Method: Recombinant Aurora-C protein was expressed in transiently transfected HEK293 cells and then purified. The kinase substrate used was the biotinylated peptide having the amino acid sequence biotin-FMRLRRLSTKYRT, which was purchased from Jerini A G in Berlin.
Aurora-C [5 nM in the test mixture, test volume 5 μl] was incubated in the presence of various concentrations of test substances (0 μM and 10 measurement points within the range 0.001-20 μM in duplicate) in assay buffer [25 mM HEPES pH 7.4, 0.5 mM MnCl2, 0.1 mM Na ortho-vanadate, 2.0 mM dithiothreitol, 0.05% bovine serum albumin (BSA), 0.01% Triton X-100, 3 μM adenosine trisphosphate (ATP), 0.67 nCi/μl gama-P33-ATP, 2.0 μM substrate peptide biotin-FMRLRRLSTKYRT, 1.0% dimethyl sulphoxide] at 22° C. for 90 min. The reaction was stopped by adding 12.5 μl of an EDTA/detection solution [16 mM EDTA, 40 mM ATP, 0.08% Triton X-100, 4 mg/ml PVT streptavidin SPA beads (from Amersham)]. After incubation for 10 minutes, the SPA beads were pelleted by centrifugation at 1000×G for 10 minutes. Measurement took place in a PerkinElmer Topcount scintillation counter. The measured data were normalized to 0% inhibition (enzyme reaction without inhibitor) and 100% inhibition (enzyme reaction in the presence of 0.1 μM staurosporine (from Sigma)). The IC50 values were determined by means of a 4-parameter fit using the company's own software.

CDK1/CycB = target: T2, CDK1/CycB (Homo sapiens, UniProt P06493); test: CDK1/CycB kinase assay; details: 0.5 μM ATP, 22° C., 10 min
T2 construct: GST; purchased ProQinase GmbH, Freiburg; host or cells: baculovirus-infected Sf9 insect cells
T2 sequence (P06493 whole entry): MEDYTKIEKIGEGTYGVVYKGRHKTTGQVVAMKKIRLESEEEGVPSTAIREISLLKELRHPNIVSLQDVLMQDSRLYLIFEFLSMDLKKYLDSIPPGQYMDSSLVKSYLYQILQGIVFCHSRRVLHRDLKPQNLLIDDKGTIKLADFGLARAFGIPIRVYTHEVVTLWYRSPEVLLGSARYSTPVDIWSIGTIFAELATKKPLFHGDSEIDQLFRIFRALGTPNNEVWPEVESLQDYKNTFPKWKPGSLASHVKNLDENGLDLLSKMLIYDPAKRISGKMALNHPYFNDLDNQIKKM
T2 sequence (P14635 whole entry partner): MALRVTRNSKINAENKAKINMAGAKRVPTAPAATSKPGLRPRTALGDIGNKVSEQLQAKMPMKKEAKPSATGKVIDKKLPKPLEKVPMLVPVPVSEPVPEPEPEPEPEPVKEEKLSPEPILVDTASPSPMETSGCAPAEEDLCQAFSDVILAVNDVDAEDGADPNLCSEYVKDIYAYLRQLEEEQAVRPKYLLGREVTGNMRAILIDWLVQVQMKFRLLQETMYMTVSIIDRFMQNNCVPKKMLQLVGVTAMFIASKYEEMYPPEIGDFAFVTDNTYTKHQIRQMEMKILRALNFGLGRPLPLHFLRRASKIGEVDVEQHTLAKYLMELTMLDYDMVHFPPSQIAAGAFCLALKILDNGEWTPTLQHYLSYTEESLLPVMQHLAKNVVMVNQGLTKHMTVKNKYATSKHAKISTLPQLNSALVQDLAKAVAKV
Method: Recombinant CDK1- and CycB-GST fusion proteins, purified from baculovirus-infected insect cells (Sf9), were purchased from ProQinase GmbH, Freiburg. The histone IIIS used as kinase substrate can be purchased from Sigma. CDK1/CycB (200 ng/measurement point) was incubated in the presence of various concentrations of test substances (0 μM, and within the range 0.01-100 μM) in assay buffer [50 mM Tris/HCl pH 8.0, 10 mM MgCl2, 0.1 mM Na ortho-vanadate, 1.0 mM dithiothreitol, 0.5 μM ATP, 10 μg/measurement point histone IIIS, 0.2 μCi/measurement point 33P-gamma ATP, 0.05% NP40, 1.25% dimethyl sulphoxide] at 22° C. for 10 min. The reaction was stopped by adding EDTA solution (250 mM, pH 8.0, 15 μl/measurement point).
15 μl of each reaction mixture were loaded onto P30 filter strips (from Wallac), and non-incorporated 33P-ATP was removed by washing the filter strips three times in 0.5% strength phosphoric acid for 10 min each time. After the filter strips had been dried at 70° C. for 1 hour, the filter strips were covered with scintillator strips (MeltiLex™ A, from Wallac) and baked at 90° C. for 1 hour. The amount of incorporated 33P (substrate phosphorylation) was determined by scintillation measurement in a gamma radiation counter (Wallac).

Chk1 = target: T3, Chk1 (Homo sapiens, UniProt O14757); test: Chk1 kinase assay; details: 10 μM ATP, 22° C., 60 min
T3 construct: made in house; host or cells: Sf9 insect cells
T3 sequence (O14757 1-476): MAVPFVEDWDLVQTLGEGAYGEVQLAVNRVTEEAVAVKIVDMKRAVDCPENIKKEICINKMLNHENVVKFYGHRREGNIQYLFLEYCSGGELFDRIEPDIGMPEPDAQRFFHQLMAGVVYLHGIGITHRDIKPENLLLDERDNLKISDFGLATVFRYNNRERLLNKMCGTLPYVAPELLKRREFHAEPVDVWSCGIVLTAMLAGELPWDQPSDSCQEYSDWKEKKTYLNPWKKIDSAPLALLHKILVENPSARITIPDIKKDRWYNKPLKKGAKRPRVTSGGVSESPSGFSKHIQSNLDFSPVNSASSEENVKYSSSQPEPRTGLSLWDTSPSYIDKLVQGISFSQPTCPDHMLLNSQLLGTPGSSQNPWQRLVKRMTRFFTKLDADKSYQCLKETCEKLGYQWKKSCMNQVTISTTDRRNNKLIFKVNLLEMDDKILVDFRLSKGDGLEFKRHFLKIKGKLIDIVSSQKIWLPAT
Method: Recombinant Chk1 protein was expressed in Sf9 insect cells and then purified. The kinase substrate used was the biotinylated peptide having the amino acid sequence biotin-ALKLVRTPSFVITAK, which was purchased from Biosynthan GmbH in Berlin.
Chk1 [0.11 μg/ml in the test mixture, test volume 5 μl] was incubated in the presence of various concentrations of test substances (0 μM, and 10 measurement points within the range 0.001-20 μM in duplicate) in assay buffer [50 mM HEPES pH 7.5, 10 mM MgCl2, […], 0.1 mM Na ortho-vanadate, 1.0 mM dithiothreitol, 1 tablet/2.5 ml complete protease inhibitor (from Roche), 10 μM ATP, 1.0 μM substrate peptide biotin-ALKLVRTPSFVITAK, 1.0% dimethyl sulphoxide] at 22° C. for 60 min. The reaction was stopped by adding 5 μl of an EDTA/detection solution [100 mM EDTA, 800 mM potassium fluoride, 0.2% BSA, 0.2 μM streptavidin-XLent (from CisBio), 9.6 nM anti-phospho-Akt antibody (from Cell Signalling Technology), 4 nM protein-A-Eu(K) (from CisBio)]. The fluorescence emission at 620 nm and 665 nm after excitation with light of the wavelength 350 nm was measured in a Rubystar HTRF instrument from BMG Labsystems.
The measured data (ratio of emission 665 divided by emission 620 multiplied by 10 000) were normalized to 0% inhibition (enzyme reaction without inhibitor) and 100% inhibition (all assay components apart from enzyme). The IC50 values were determined by means of a 4-parameter fit using the company's own software.

Row | IC50 (Aurora-C) | IC50 (CDK1/CycB) | IC50 (Chk1) | Compound
1 | 19 nM | 173 nM | 4640 nM | CCOC(=O)N=S(C)(=O)c1ccc2cc1NCCCCNc1nc(ncc1Br)N2 (racemic) [Example 1, (RS)—S-[1^5-Bromo-2,4,9-triaza-1(2,4)-pyrimidina-3(1,3)-benzenacyclononaphan-3^4-yl]-N-(ethoxycarbonyl)-S-methylsulphoximide]
2 | 24 nM | 118 nM | 1850 nM | CCOC(=O)N=S(C)(=O)c1ccc2cc1NCCCCNc1nc(ncc1I)N2 (racemic) [Example 4, (RS)—N-(Ethoxycarbonyl)-S-[1^5-iodo-2,4,9-triaza-1(2,4)-pyrimidina-3(1,3)-benzenacyclononaphan-3^4-yl]-S-methylsulphoximide]
3 | 88 nM | > 1000 nM | > 20000 nM | C[Si](C)(C)CCS(=O)(=O)N=S(C)(=O)c1ccc2cc1NCCCCNc1nc(ncc1Br)N2 (racemic) [Example 5, (RS)—S-[1^5-Bromo-2,4,9-triaza-1(2,4)-pyrimidina-3(1,3)-benzenacyclononaphan-3^4-yl]-S-methyl-N-[2-(trimethylsilyl)ethylsulphonyl]sulphoximide]
4 | 19 nM | 70 nM | 3770 nM | CCNC(=O)N=S(C)(=O)c1ccc2cc1NCCCCNc1nc(ncc1Br)N2 (racemic) [Example 6, (RS)—S-[1^5-Bromo-2,4,9-triaza-1(2,4)-pyrimidina-3(1,3)-benzenacyclononaphan-3^4-yl]-N-(ethylcarbamoyl)-S-methylsulphoximide]
5 | 34 nM | 452 nM | > 20000 nM | CCCS(=O)(=O)N=S(C)(=O)c1ccc2cc1NCCCCNc1nc(ncc1Br)N2 (racemic) [Example 7, (RS)—S-[1^5-Bromo-2,4,9-triaza-1(2,4)-pyrimidina-3(1,3)-benzenacyclononaphan-3^4-yl]-S-methyl-N-(propylsulphonyl)sulphoximide]
6 | 283 nM | 438 nM | > 20000 nM | CCCOC(=O)N=S(C)(=O)c1ccc2cc1OCCCCNc1nc(ncc1Br)N2 (racemic) [Example 8, (RS)—S-[1^5-Bromo-4-oxa-2,9-diaza-1(2,4)-pyrimidina-3(1,3)-benzenacyclononaphan-3^4-yl]-S-methyl-N-(propoxycarbonyl)sulphoximide]
7 | 95 nM | > 1000 nM | > 12500 nM | C[Si](C)(C)CCS(=O)(=O)N=S(C)(=O)c1ccc2cc1OCCCCNc1nc(ncc1Br)N2 (racemic) [Example 9, (RS)—S-[1^5-Bromo-4-oxa-2,9-diaza-1(2,4)-pyrimidina-3(1,3)-benzenacyclononaphan-3^4-yl]-S-methyl-N-[2-(trimethylsilyl)ethylsulphonyl]sulphoximide]
8 | 13 nM | 104 nM | 3630 nM | CCOC(=O)N=S(C)(=O)c1ccc2cc1NCCCCNc1nc(ncc1Br)N2 (single isomer, unassigned) [Example 2]
9 | 69 nM | 210 nM | 6840 nM | CCOC(=O)N=S(C)(=O)c1ccc2cc1NCCCCNc1nc(ncc1Br)N2 (single isomer, unassigned) [Example 3]
